Laboratory results: patent US8119841B2 (Novartis AG, priority 2006, dated 2012)

Columns and labels:
[1] = dynamic vapor sorption isotherm; type: physicochemical; conditions: for reversibility of hygroscopicity: up to 60% R.H. at 25° C.
From the text: B) Dynamic Vapor Sorption Isotherm of Modification A, Modification B and Amorphous Material: In the following tables 7 and 8, R.H. stands for Relative Humidity, Sorpt. for Sorption and Desorpt. for Desorption.

[2] = equilibration in solvents, solid investigated by XRPD; type: physicochemical; parameters: key to XRPD after equilibration: +: change detected; −: no change detected; //: not carried out as substance too soluble; conditions: for change of the form: in cyclohexane or n-heptane; for XRPD after equilibration: 25 degree Celsius
Method: Between 200 mg to 700 mg of drug substance are equilibrated with 0.5 to 1 ml of solvent for at least 24 h in a water bath at the determined temperature +/−0.1° C. After equilibration, the solutions are filtered. The solid part is investigated by XRPD (X-ray Powder Diffraction).

[3] = heat of dissolution in water; type: physicochemical; conditions: about 100 mg in 100 ml of water, 25° C.; mean of three determinations
Method: About 100 mg of material is placed in a sealed glass ampoule. After equilibration at 25° C., the ampoule is broken in 100 ml of water.

[4] = test system: patients with NYHA class II-IV heart failure and LVEF <35%; conditions: in vivo; cited from earlier work
[5] = test system: severely sodium-depleted marmoset monkeys; conditions: orally or intravenously; cited from earlier work
[6] = test system: patients with mild to moderate hypertension; conditions: aliskiren 75 mg to 300 mg; 4 weeks duration; cited from earlier work
[7] = XRPD at various relative humidities; type: physicochemical
Method: (§1) The aim is to evaluate the influence of the storage condition on the crystalline form of SPP100 hemifumarate For this purpose, two different experiments have been performed. The first one consists to submit SPP100 hemifumarate modification A to a nitrogen flow and to record at various time the corresponding XRPD pattern. During the second experiment the influence of relative humidity on the crystalline modification A is determined by XRPD measurement.

[8] = XRPD during storage under nitrogen flow; type: physicochemical
Method: as §1

[9] = amorphous material kept under organic solvent vapor, XRPD; type: physicochemical; parameters: key: +: change detected; −: no change detected; //: not carried out as substance too soluble; conditions: room temperature, at least one week
Method: For example, about 100 mg of amorphous material are placed under organic solvent vapor for at least one week at room temperature. The solid material is investigated by XRPD (X-ray powder diffraction), and the following results are obtained: […]

[10] = stability of solvate single crystals to air and humidity; type: physicochemical
Method: Characterisation: Structurally, solvate forms SC and SD are characterized by single crystal X-ray diffraction. The single crystals are grown using heptane as antisolvent. The isopropanol and the ethanol solvate of SPP100 hemifumarate can be grown as small needles from isopropanol, or ethanol solution respectively, by precipitation with heptane antisolvent. As there the data quality is better, only the ethanol solvate form obtained from ethanol/heptane (so called SD, corresponding to Form D mentioned in Example 9) is discussed in detail. But from the data the conclusion can be drawn that the isopropanol solvate (so called SC) is isostructural to the ethanol solvate (when heptane is used as antisolvent). The solvate SD stoichiometry consists of one SPP100 molecule, 1/2 fumarate group and 3 solvent molecules.
They consist of a distinct channel structure along the crystallographic b-axis which occupies about 25% of the whole crystal structure volume. […] Hydrogen bonds can be found between SPP100 (hydroxyl group and protonated amine group of SPP100) and the fumarate group and between SPP100 molecules (protonated amine group and oxygen). Another H-bond exists between ethanol and SPP100 (oxygen and amine group). Dominating propagation vector of the H-bonds is the crystallographic b-axis. […]

In the case of `COCCCOc1cc(C[C@@H](C[C@H](N)[C@@H](O)C[C@H](C(=O)NCC(C)(C)C(N)=O)C(C)C)C(C)C)ccc1OC` [Modification B, aliskiren hemifumarate], the hygroscopic behavior [1] is reported as “strong hygroscopic behavior”, the “hygroscopicity compared among the 3 modifications” value [1] is reported as “least hygroscopic form” and the “Desorpt wt % 2nd” value ([1]; R.H. 0 %) is reported as 0.04 wt %. The “Sorpt. wt % 1st” value ([1]; R.H. 0 %) was 0.00 wt %, the “Desorpt wt % 2nd” value ([1]; R.H. 10 %) was 2.33 wt % and the “Sorpt. wt % 1st” value ([1]; R.H. 10 %) was 0.94 wt %. The “Desorpt wt % 2nd” value ([1]; R.H. 20 %) was 3.17 wt %, the “Sorpt. wt % 1st” value ([1]; R.H. 20 %) was 1.69 wt % and the “Desorpt wt % 2nd” value ([1]; R.H. 30 %) was 3.76 wt %. For the same compound, the “Sorpt. wt % 1st” value ([1]; R.H. 30 %) was 2.53 wt %, the “Desorpt wt % 2nd” value ([1]; R.H. 40 %) was 4.47 wt % and the “Sorpt. wt % 1st” value ([1]; R.H. 40 %) was 3.68 wt %. The “Desorpt wt % 2nd” value ([1]; R.H. 50 %) was 5.65 wt %, the “Sorpt. wt % 1st” value ([1]; R.H. 50 %) was 5.52 wt % and the “Desorpt wt % 2nd” value ([1]; R.H. 60 %) was 7.68 wt %. For the same compound, the “Sorpt. wt % 1st” value ([1]; R.H. 60 %) was 7.68 wt %, the reversibility of hygroscopicity [1] was “reversible” and the “change of the form” value [2] was “No change”. For the same compound, the “heat of dissolution, Mean” value [3] was -5.88 kcal/mol.

In the case of `CCOC(=O)[C@H](CCc1ccccc1)N[C@@H](C)C(=O)N1[C@H](C(=O)O)C[C@@H]2CCC[C@@H]21` [ramipril], the PRA [4] is listed as “increased”, the “angiotensin II levels” value [4] is listed as “Trends towards reduced” and the “effects on hormonal parameters” value [4] is listed as “No deleterious effects”.

In the case of `COCCCOc1cc(C[C@@H](C[C@H](N)[C@@H](O)C[C@H](C(=O)NCC(C)(C)C(N)=O)C(C)C)C(C)C)ccc1OC` [aliskiren, 2(S),4(S),5(S),7(S)-N-(3-amino-2,2-dimethyl-3-oxopropyl)-2,7-di(1-methylethyl)4-hydroxy-5-amino-8-[4-methoxy-3-(3-methoxy-propoxy)phenyl]-octanamide], the mean arterial pressure [5] is given as “sustained reductions”, the “plasma concentrations of active and total renin” value [5] is given as “significant increases” and the plasma renin activity [5] is given as “complete inhibition”. For the same compound, the blood pressure [6] was “Dose dependent decreases”, the PRA [4] was “inhibited” and the “angiotensin II levels” value [4] was “Trends towards reduced”.

With `COCCCOc1cc(C[C@@H](C[C@H](N)[C@@H](O)C[C@H](C(=O)NCC(C)(C)C(N)=O)C(C)C)C(C)C)ccc1OC` [Modification A, aliskiren hemifumarate] the XRPD ([7]; 0 h, RH 0%*) was “Mod A”, the XRPD ([7]; 2.55 h, RH 10%) was “Mod A” and the XRPD ([7]; 5.01 h, RH 25%) was “Mod A”. For the same compound, the XRPD ([7]; 7.4 h, RH 35%) was “Mod A”, the XRPD ([7]; 9.8 h, RH 45%) was “Mod A” and the XRPD ([7]; 24.23 h, RH 45%) was “Mod A”. For the same compound, the XRPD ([7]; 26.86 h, RH 60%) was “Mod A”, the XRPD ([7]; 32.51 h, RH 70%) was “Mod A” and the XRPD ([7]; 47.6 h, RH 70%) was “Mod A”. For the same compound, the XRPD ([7]; 143.9 h, RH 70%) was “Mod A”, the hygroscopic behavior [1] was “strong hygroscopic behavior” and the “Sorpt. wt % 1st” value ([1]; R.H. 0 %) was 0.00 wt %. The reversibility of hygroscopicity [1] was “reversible”, the XRPD after equilibration ([2]; Acetone) was “+ chemical reaction” and the XRPD after equilibration ([2]; Acetonitrile) was “−”. For the same compound, the XRPD after equilibration ([2]; Cyclohexane) was “−”, the XRPD after equilibration ([2]; DMAc) was “+ Typ III” and the XRPD after equilibration ([2]; Dioxane) was “+ Typ III”. The XRPD after equilibration ([2]; Isopropanol) was “+ Mod. B”, the XRPD after equilibration ([2]; Methylethylketone) was “+ chemical reaction” and the XRPD after equilibration ([2]; Pentanol) was “+ Typ V”. The XRPD after equilibration ([2]; TBME) was “+ amorphous + Typ II”, the XRPD after equilibration ([2]; Tetrahydrofurane) was “+ Typ III” and the XRPD after equilibration ([2]; Toluol) was “+ amorphous”. For the same compound, the “change of the form” value [2] was “No change”, the XRPD after equilibration ([2]; n-heptane) was “−” and the Change ([8]; 0.00 hour) was “none”. The XRPD ([8]; 0.00 hour) was “Mod A”, the Change ([8]; 2.25 hour) was “none” and the XRPD ([8]; 2.25 hour) was “Mod A”. The Change ([8]; 4.53 hour) was “none”, the XRPD ([8]; 4.53 hour) was “Mod A” and the Change ([8]; 7.80 hour) was “none”. The XRPD ([8]; 7.80 hour) was “Mod A”, the Change ([8]; 13.10 hour) was “none” and the XRPD ([8]; 13.10 hour) was “Mod A”. For the same compound, the Change ([8]; 14.75 hour) was “none”, the XRPD ([8]; 14.75 hour) was “Mod A” and the “heat of dissolution, Mean” value [3] was -7.55 kcal/mol.

For `COCCCOc1cc(C[C@@H](C[C@H](N)[C@@H](O)C[C@H](C(=O)NCC(C)(C)C(N)=O)C(C)C)C(C)C)ccc1OC` [Amorphous, aliskiren hemifumarate], the hygroscopic behavior [1] was “strong hygroscopic behavior”, the reversibility of hygroscopicity [1] was “reversible” and the “change of the form” value [2] was “No change”. For the same compound, the “Modification obtained by XRPD” value ([9]; 1-hexanol vapor) was “+ Typ V”, the “Modification obtained by XRPD” value ([9]; 2-propanol vapor) was “+ Typ V” and the “Modification obtained by XRPD” value ([9]; Acetonitrile vapor) was “+ Typ. IV”. For the same compound, the “Modification obtained by XRPD” value ([9]; Dimethylformamide vapor) was “Mainly amorphous”, the “Modification obtained by XRPD” value ([9]; Ethanol vapor) was “Amorphous + Typ. V” and the “Modification obtained by XRPD” value ([9]; Ethyl acetate vapor) was “+ amorphous + small amount of Typ. III”. The “Modification obtained by XRPD” value ([9]; Methyl acetate vapor) was “+ Typ I”, the “Modification obtained by XRPD” value ([9]; TBME vapor) was “−” and the “Modification obtained by XRPD” value ([9]; Tetrahydrofurane vapor) was “+ Typ III”. The “Modification obtained by XRPD” value ([9]; Toluene vapor) was “−” and the “Modification obtained by XRPD” value ([9]; n-butanol vapor) was “+ Typ. V”.

With `COCCCOc1cc(C[C@@H](C[C@H](N)[C@@H](O)C[C@H](C(=O)NCC(C)(C)C(N)=O)C(C)C)C(C)C)ccc1OC` [SC, aliskiren hemifumarate] the “stability of the structure to air and humidity” value [10] was “very sensible to air and humidity and decompose rapidly”.
